Assay results as given in patent US11040052B2, “Methods and pharmaceutical compositions for modulating autophagy in a subject in need thereof” (INSERM (INSTITUT NATIONAL DE LA SANTE ET DE LA RECHERCHE …, priority 2013, dated 2021).
“Also recorded” adds a separate entry of the source.

Legend:
[1] = tested on: cytoplasmic protein acetylation; test: Immunofluorescence of cytoplasmic acetyl-lysine-containing proteins; type: cell-based, human; details: for cytoplasmic protein acetylation: cells kept in rich medium; for cytoplasmic protein acetylation in starved cells: nutrient-depleted (starved) cells in vitro
Procedure: Cells were fixed with 4% PFA for 15 min at room temperature, and permeabilized with 0.1% Triton X-100 for 10 min, except for staining of cytoplasmic acetyl-lysine-containing proteins, in which any permeabilization step further than PFA fixation was avoided. Non-specific binding sites were blocked with 5% bovine serum in PBS, followed by staining with primary antibodies overnight at 4° C. Development was carried out with appropriate AlexaFluor™ conjugates (Molecular Probes-Invitrogen). In the case of cytoplasmic acetyl-lysine staining, an additional step of blocking using anti-acetylated-tubulin antibody (1:200) was applied. Ten μM Hoechst 33342 (Molecular Probes-Invitrogen) was employed for nuclear counterstaining. Fluorescence and confocal fluorescence microscopy assessments were performed on an IRE2 microscope (Lcica Microsystems) equipped with a DC300F camera and with an LSM 510 microscope (Carl Zeiss, Jena, Germany), respectively.
U2OS, HeLa or H4 cells stably expressing GFP-LC3 were seeded in 96-well imaging plates (BD Falcon, Sparks, USA) 24 h before stimulation. Cells were treated with the indicated agents for 4 h. Subsequently, cells were fixed with 4% PFA and counterstained with 10 μM Hoechst 33342. Images were acquired using a BD pathway 855 automated microscope (BD Imaging Systems, San Jose, USA) equipped with a 40× objective (Olympus, Center Valley, USA) coupled to a robotized Twister II plate handler (Caliper Life Sciences, Hopkinton, USA). Images were analyzed for the presence of GFP-LC3 puncta in the cytoplasm by means of the BD Attovision software (BD Imaging Systems). Cell surfaces were segmented and divided into cytoplasmic and nuclear regions according to manufacturer standard proceedings. RB 2×2 and Marr-Hildreth algorithms were used to recognize cytoplasmic GFP-LC3 positive dots. Statistical analyses were implemented on the R software (http://www.r-project.org/). For quantitative analyses of protein acetylation, cell surfaces were segmented into cytoplasm and nuclei regions, and staining intensity of each individual cell was measured for statistical analysis.
Cells were fixed with 4% PFA for 15 min at room temperature, and permeabilized with 0.1% Triton X-100 for 10 min. For cytoplasmic Acetyl Lysine staining, we proceeded as described in 35. Non-specific binding sites were blocked with 5% bovine serum albumin in PBS, followed by incubation with primary antibodies overnight at 4° C. After 1 hour incubation, appropriate Alexa-conjugated Fluorophores (Invitrogen) were used for antigen detection. Ten μM Hoechst 33342 (Molecular Probes-Invitrogen, Eugene, USA) was employed for nuclear counterstaining Fluorescence wide-field and confocal microscopyassessments were performed on an DM IRE2 microscope (Leica Microsystems, Wetzlar, Germany) equipped with a DC300F camera and with an LSM 510 microscope (Carl Zeiss, Jena, Germany), respectively.
U2OS and H4 cells stably expressing GFP-LC3 were seeded in 96-well or 384-well imaging plates (BD Falcon, Sparks, USA). 24 h before stimulation, ells were treated with the indicated agents for 6 hours in absence of lysososomal ATPase inhibitors and for 3 hours in presence of Bafilomycin A1. Subsequently, cells were fixed with 4% PFA and counterstained with 10 μM Hoechst 33342. Images were acquired using a BD pathway 855 automated microscope (BD Imaging Systems, San Jose, USA) equipped with a 40× objective (Olympus, Center Valley, USA) coupled to a robotized Twister II plate handler (Caliper Life Sciences, Hopkinton, USA). […]

[2] = tested on: cytoplasts of U2OS cells stably expressing GFP-LC3; test: Autophagic flux in cytoplasts (enucleated GFP-LC3 cells); type: cell-based, human; details: presence of BafA1, compared with nucleated control cells
Procedure: U2OS cells stably expressing GFP-LC3 were trypsinized and incubated in 3 ml of complete medium supplemented with […] cytochalasin B for 45 min at 37° C. This cell suspension was layered onto a discontinuous Ficoll density gradient (3 mL of 55%, 1 mL of 90%, and 3 mL of 100% Ficoll-Paques; GE Healthcare) in complete medium containing […] cytochalasin B. Gradients were prepared in ultracentrifuge tubes and pre-equilibrated at 37° C. in a CO2 incubator overnight. Gradients containing cell suspensions were centrifugated in a prewarmed rotor (SW41; Beck-man Coulter) at 30,000 g for 30 min at 32° C. The cytoplast-enriched fraction was collected from the interface between 55 and 90% Ficoll layers, washed in complete medium, and incubated for 4 h at 37° C. before treatments.

cellular ATP levels = test: Cellular ATP levels; type: cell-based
EP300 = test: Acetylation of EP300 K1499 in starved cells; type: cell-based; details: nutrient-free conditions
[3] = tested on: turnover of long-lived proteins; test: Turnover of long-lived proteins; type: cell-based, human; details: for starvation-induced turnover of long-lived proteins: starved cells

SMILES | cytoplasmic protein acetylation [1] | autophagic flux in cytoplasts [2] | cytoplasmic protein acetylation in starved cells [1] | cellular ATP levels in starved cells (cellular ATP levels) | starvation-induced deacetylation of the K1499 residue in EP300 (EP300) | further results
O=C(O)c1cccc(C(=O)O)c1C(=O)O [BTC, 1,2,3-benzenetricarboxylate] | reduced both AcCoA levels (A) and cytoplasmic protein acetylation; also recorded: protein deacetylation | stimulated autophagy in cytoplasts as efficiently as in nucleated control cells; also recorded: stimulated autophagic flux in cytoplasts as efficiently as in nucleated control cells |  |  |  | 
COC(=O)CCC(=O)C(=O)OC [DMKG, dimethyl-α-ketoglutarate] |  |  | increased cellular AcCoA levels (E) and cytoplasmic protein acetylation; also recorded: maintained high AcCoA and cytoplasmic acetylation levels | induced a decrease in cellular ATP | could be avoided | 
O=C(O)CC(O)(C(=O)O)C(O)C(=O)O (stereo not drawn) [HC, hydroxycitrate] | reduced both AcCoA levels (E, I) and cytoplasmic protein acetylation; also recorded: induced cytosolic protein deacetylation; also recorded: induced cytoplasmic protein deacetylation | stimulated autophagy in cytoplasts as efficiently as in nucleated control cells; also recorded: stimulated autophagic flux in cytoplasts as efficiently as in nucleated control cells |  |  |  | cytoplasmic protein acetylation ([1]; listed as Hydroxycitrate): reduces cytoplasmic; also recorded: reduced cytoplasmic protein acetylation
CC(C)CC(=O)C(=O)O [KIC, ketoisocaproic acid] |  |  | increase in AcCoA levels (A) and cytoplasmic protein acetylation; also recorded: sufficient to avoid AcCoA depletion and protein deacetylation | induced a decrease in cellular ATP | could be avoided | starvation-induced turnover of long-lived proteins [3]: inhibited the starvation-induced increase in autophagic flux and turnover of long-lived proteins
O=C(O)CCCCC1CCSS1 (stereo not drawn) [LA, lipoic acid] |  |  | increased both cellular AcCoA levels (K) and cytoplasmic protein acetylation; also recorded: maintain high AcCoA and cytoplasmic acetylation levels | induced a decrease in cellular ATP | could be avoided | starvation-induced turnover of long-lived proteins [3]: blunted
N#CC(=Cc1cn(-c2ccccc2)c2ccccc12)C(=O)O [UK5099, 2-Cyano-3-(1-phenyl-1H-indol-3-yl)-2-propenoic acid] | reduced both AcCoA levels (A, E) and cytoplasmic protein acetylation; also recorded: deacetylation of cytoplasmic proteins | stimulated autophagy in cytoplasts as efficiently as in nucleated control cells; also recorded: stimulated autophagic flux in cytoplasts as efficiently as in nucleated control cells |  |  |  | autophagy-dependent turnover of long-lived proteins ([3]; cells in rich medium): increased the autophagy-dependent turnover of long-lived proteins; cellular ATP levels (cellular ATP levels; cells in rich medium): without reducing ATP
CC(C)C[C@H](N)C(=O)O [leucine] |  |  | sufficient to maintain high AcCoA levels and cytoplasmic protein acetylation |  |  | 
